Source: patent US20190298717A1 (BOARD OF REGENTS, THE UNIVERSITY OF TEXAS SYSTEM, priority 2016, published 2019)

What was measured:
SH-SY5Y cells [1] = experiment: Protein carbonyl assay (2,4-DNPH) in H2O2-stressed cells; format: cell-based, human; conditions: 100 μM H2O2 24 h, 10 and 25 μM compound
Method: To generate intracellular aldehydes, the inventors treated human neuroblastoma cell line (SH-SY5Y) with 100 μM hydrogen peroxide (H2O2) for 24 h. Carbonyl groups were quantified using 2,4-DNPH (dinitrophenylhydrazine) assay.
Protein carbonyl Assay. Protein carbonyls were measured using a commercially available kit (MAK094; Sigma-Aldrich, St. Louis, Mo.). Cells were first lysed in lysis buffer provided by the kit.
Following centrifugation, 100 μL of supernatant was added to 10 μL of 10% […] solution, was incubated at room temperature for 10 min and re-centrifuged to remove interfering nucleic acids. Carbonyl content of supernatant was determined by adding 2, 4-dinatrophenylhydrazine followed by detection of dinitrophenyl hydrazine adduct at 375 nm in a 96 well plate reader. The protein content of each sample was determined using a bicinchoninic acid (BCA) assay, Thermo Fischer, Waltham, Mass.).

Nrf2 = tested on: Nrf2
Method: The inventors quantified Nrf2 protein in treated cells as a first step towards validating the prediction of the Nrf2 pathway.
Nrf2 phosphorylation on serine 40 is a regulatory modification required for Nrf2 translocation to nucleus and downstream protein activation.
(§1) Western Blot Analysis. Protein expression was determined by Western blot analysis. Equal amount of protein from each sample was run in Tris-glycine SDS PAGE gel, followed by transferring to PVDF membrane. After blocking the membrane with 5% milk for 1 hour at room temperature, the membrane was incubated further for 2 hours with antibodies specific for target proteins: Nrf2, pNrf2(S40) from Novus (Littleton, Colo.); Keap1, HO-1, NQO1, GCLc, GCLm and lamin B1 from Cell Signaling (Danvers, Mass.); GAPDH from Santa Cruz (Dallas, Tex.); β-Actin from Thermo Fisher (Waltham, Mass.). The membrane was subsequently incubated with species-specific HRP-conjugated secondary antibody followed by incubation with chemiluminescence substrate and imaging. The band intensity of each of the target proteins was quantified using ImageQuant software (GE Healthcare, Sweden). Western blot analysis on worm lystaes was done similarly. […] Equal amounts of protein were run on the gel and SKN-1 protein level was detected using anti-GFP antibody.
Cell Fractionation. Nuclear and cytoplasmic fractions were separated using the protocol and NE-PER Nuclear and Cytoplasmic Extraction Reagents provided by […]. Briefly, the cells were harvested and washed with ice-cold PBS buffer. The cells were resuspended in ice-cold CER-I buffer and incubated on ice for 10 minutes, followed by addition of CER-II buffer and incubation for one more minute on ice. The lysate was centrifuged at 16,000 g for 5 minutes. The supernatant was the cytoplasmic fraction. The pellet obtained was lysed in ice-cold NER buffer to obtain nuclear protein fractions.

[2] = tested on: GCLc, GCLm, HO-1, and NQO-1; conditions: SH-SY5Y, 24 h
Method: GSH is regulated by the rate-limiting enzyme GCL consisted of GCLc and GCLm subunits. […] The inventors then used extracellular lactate dehydrogenase cytotoxicity assay to measure cell survival.
as §1

SKN-1 = tested on: SKN-1
Method: as §1

SH-SY5Y cells [3] = conditions: 72 hours
Method: Mitochondrial mass was measured by staining the cells with Mito tracker deep red followed by flow cytometric analysis. […] DNA copy number of mitochondria was calculated by amplification of ND5 or m-RNR, as mitochondrial genes, relative to LPL as a nucleus specific DNA sequence. Relative expression values were normalized to untreated cells.
Several parameters directly linked to intact mitochondria itself, namely mitochondrial mass, mtDNA copy number (as representatives of mitochondrial biogenesis), mitochondrial membrane potential (reporter of mitochondrial function) and ATP level as a signature of energetics (FIGS. 11A to 11E) were measured. […] Isoniazid (20 μM) and resveratrol (20 μM) were used as negative and positive controls respectively). Mitochondrial mass was also evaluated in parallel by measuring the relative amount of mitochondrial to nuclear DNA. Two different set of primers (ND5 and m-RNR) were used to amplify mt-DNA in qPCR reactions (FIG. 11B).
The mitochondrial membrane potential was measured as an indicator of cellular energetics and ATP content.

[4] = tested on: PC12 cells expressing EGFP-HDQ74
Method: Transgene expression was induced with doxycycline for 8 hours, and then switched off (by removing doxycycline). […] The fraction of EGFP-positive cells expressing aggregates under different conditions were plotted as odds ratios taking Ctrl value as 1. Error bars show 95% confidence interval. […] The fraction of EGFP-positive cells with aggregates were plotted as odds ratios taking Ctrl value as 1. Error bars show 95% confidence interval. […] Rapamycin ([…]) was used as positive control. Right panel is densitometry analysis of EGFP-HDQ74 level normalized to actin. Error bars show SD. […] The fraction of EGFP-positive cells expressing aggregates were plotted as odds ratios taking Ctrl value as 1. Error bars show 95% confidence interval.
To investigate the clearance of HDQ74 (74 repeats of poly Q), the inventors used a stable doxycycline-inducible PC12 cell line expressing EGFP-tagged HDQ74 in which transgene expression were induced by doxycycline addition to the cell media and switched off by doxycycline removal. […] Rapamycin, a known autophagy inducer, was used as positive controls.

[5] = tested on: HeLa cells expressing EGFP-HD103Q; conditions: 48 hours
Text: The fraction of EGFP-positive cells expressing aggregates under different conditions were plotted as odds ratios taking Ctrl value as 1. Error bars show 95% confidence interval. […] Error bars show SD.

[6] = tested on: SKN-1/Nrf2-stress response pathway; conditions: in vivo
Method: Treated and untreated populations, four biological replicates each, were then lysed, digested and analyzed by shotgun mass spectrometry for label-free quantification. […] An IPA analysis was performed using proteins with human orthologs.
Worms were lysed in 8M urea, 5% 1 M Tris-HCl pH 8.0 and 1× protease inhibitor cocktail EDTA-free (Thermo Fisher, Waltham Mass.) buffer with the aid of sonication. Lysates were centrifuged at 14000 g for 15 min at 4° C. and proteins in the supernatant were precipitated using cold acetone. Disulfide bonds were reduced and alkylated (by DTT and IAA respectively) before diluting the solution to 1.8 M with 25 mM TRIS-HCL pH 8.0. Proteins were digested overnight at 37° C. with trypsin (Promega, Fitchburg Wis.) in presence of 1 mM CaCl2. Peptides were acidified with TFA and purified using Oasis HLB plates (Waters, UK). A Dionex Ultimate 3000 UHPLC (Thermo) was coupled to an Orbitrap Fusion Lumos mass spectrometer for the separation and analysis of tryptic peptides. […]
LC-MS/MS raw data files were processed using the latest available MaxQuant software (v.1.5.3.30). […] The p-values for all the statistical analysis were calculated using a two-tailed student t-test as used for normally distributed data (we pre-processed intensities by binary logarithm).

MEF cells = conditions: 10 μM, 24 and 48 hours
Method: Cells were then subjected to confocal analysis and mRFP-GFP (yellow representing autophagosome) and mRFP (red puncta representing autophagolysosomes) were recorded; scale bar, 10 gtm. […] The co-localization of mRFP with GFP signal from tfLC3 puncta was measured using ImageJ software.
To further validate the present invention autophagic flux using mRFP-GFP tandem fluorescent-tagged LC3 (tfLC3) was measured. tfLC3 protein is one of the most widely used markers for the detection of autophagosomes and autophagolysosomes, two key structures in macroautophagy (8). tfLC3 was knocked-in to monitor autophagic flux in MEF cells based on different pH stabilities of GFP and mRFP (9). In autophagosome environment both mRFP and GFP tags of tfLC3 can fluoresce so autophagosome appear as yellow puncta (green GFP+red mRFP). […] Rapamycin was used as a positive control.

GSK3β and Tau = experiment: p-GSK3β (S9) and p-Tau (S396) Western blot; conditions: 10 μM, 24 hours
Method: Densitometry values were normalized against actin. […] The levels of p-Tau and total Tau were measured by Western blot analysis. […] Densitometry values were normalized to actin using Image J software. All of the western blot quantification values (shown in the right panel) are mean±SD from two technical replicates (n=2).
A known GSK3β inhibitor LiCl (lithium chloride) (10 mM) was used as a positive control [9]. After the treatment, cells were lysed and equal amounts of total lysate were resolved on SDS-PAGE for western blot analysis using phospho-GSK3β (S9) (phosphorylation at this residue reduces the GSK3β kinase activity) and pTau antibodies [12,13]. […] The inventors analyzed the level of Tau phosphorylation at S396 (FIG. 18C).

Method for primary cortical neurons: For each group (control, 0.5 μM Hyd, 1 μM Hyd, 2 μM Hyd and 2 μM Dimebon) 10 images from three replicates were analyzed. Total numbers of spines, stubby, thin, and mushroom were counted by NeuronStudio software for each image. The mean value and standard deviation of numbers for each group were calculated. P value was calculated with non-parametric T-test. All values are mean±SD (*p<0.05, **p<0.01).
Primary neuronal cells from cortex were visualized with td-Tomato (FIG. 21A). Cells were treated with 500 nM Aβ-42 oligomers or vehicle (Ctrl). Spine density and morphology were measured per 10 micron by confocal imaging. […] Mushroom and thins are indicated with an arrow. […] Dimebon, a known neuroprotective compound, was used as positive control in all experiments. Data were collected from three batches of cultures for all treatments and Ctrl. For spine quantification n=8-10 (for each treatment per one experiment) neurons were analyzed by Neuronstudio. Scale bar corresponds to 5 μm. Experiment was repeated three times. Values are shown as mean±SEM. (*p<0.05, **p<0.01, ***p<0.001, ****p<0.0001).
Primary neuronal cells were isolated from the cortex of mice pups on day 0 (P0) and cultured in 24 well plates covered by poly-D-lysine coated coverslips with a density of 1.0×105 for 7 days. Cells were then transfected with tdTomato plasmid and incubated for 14 additional days (4). […] Dimebon (2 μM) was used as a positive control. After 24 hours of treatment, cells were fixed and scanned with a Zeiss microscope at 100× resolution for visualizing spines on the dendrites. The images were analyzed using Neuronstudio software (5). […] Structural formation and the maturation of spines were also analyzed.

SMILES: NNc1nncc2ccccc12 [Hydralazine]
- protein carbonyls (SH-SY5Y cells [1]): significantly reduced the carbonyl level
- protein carbonyls (SH-SY5Y cells [1]; listed as hydralazine): reduced protein carbonyls significantly
- increase of phosphorylation of Nrf2 on serine 40 in the nuclear compartment (Nrf2; SH-SY5Y): 25%
- phosphorylation of cytosolic Nrf2 (Nrf2; SH-SY5Y): no change was observed
- increase in Nrf2 level compared to untreated cells (Nrf2; SH-SY5Y, 10 μM, 24 h, Western blotting): about 20%
- cytosolic Nrf2 fraction (Nrf2; SH-SY5Y, 10, 20 μM): remained unchanged
- nuclear localization of Nrf2 (Nrf2; SH-SY5Y, 10, 20 μM): significantly increased
- HO-1 upregulation [2]: 30%
- NQO-1 upregulation [2]: 40%
- expression of GCLc, GCLm, HO-1, and NQO-1 ([2]; Western blotting): significant increase in expression
- expression of SKN-1 isoforms (B and C) by Western blot (SKN-1; 100 μM, 72 hours): showed increases
- signal intensity and localization of SKN-1::GFP in intestinal nuclei and ASI neurons (SKN-1; in vivo): significantly increased
- mitochondrial mass (SH-SY5Y cells [3]; 0, 10, 20 μM): sharp increase in mitochondrial mass
- increase in mt-DNA copy number (SH-SY5Y cells [3]; 20 μM): more than 50%
- poly Q aggregates (Western blot, EGFP tag) [4]: efficient removal of poly Q aggregates
- EGFP-HDQ74 aggregates (confocal) ([4]; 10 μM, 48 hours): significantly reduced
- clearance of Poly Q aggregates after 3-MA and bafilomycin ([4]; 5 mM 3-MA, 20 nM bafilomycin): abrogated
- EGFP-HDQ74 aggregates in ATG5 knock-down cells ([4]; ATG5 shRNA): failed to clear
- EGFP-HD103Q poly Q aggregates [5]: disappearance of higher order poly Q aggregates
- SKN-1/Nrf2-stress response pathway activation, IPA Z score [6]: 3.317
- autophagic flux (autophagosomes, autophagolysosomes) (MEF cells): induction of autophagic flux
- spine density after Aβ-42 oligomers (primary cortical neurons; 1 μM, 500 nM Aβ-42, 24 hours): restoration of spine density
- numbers of spines in a 10 micron length of dendrite (primary cortical neurons; 0.5, 1.0, 2.0 μM, 24 hours): significantly increased
- stubby formation and mushroom spines (primary cortical neurons; 0.5, 1.0, 2.0 μM, 24 hours): increased the stubby formation and numbers of matured spines
- Tau phosphorylation at S396, compared to positive control LiCl (GSK3β and Tau): reduces the hyper-phosphorylation of Tau even more
